From patent US20050276765A1, “Preventing skin damage” (priority 2004, published 2005)

Columns and labels:
hairless Skh-1 mice = test: UVB-induced chronic skin damage: skin wrinkling score after 10 weeks; format: in vivo, mice (hairless Skh-1)
Protocol: Mice of groups 1 and 3 were exposed to UVB irradiation, using fluorescent lamps (Southern New England Ultraviolet). The height of the lamps was adjusted to deliver 0.35 mW/cm^2 at the dorsal skin surface of the mice. Samples were applied (100 μl) on the back of UVB irradiated and non-UVB irradiated mice. This procedure was repeated three times weekly for 10 weeks. […] The total cumulative dose of UVB was 6.54 J/cm^2.
After 10 weeks, skin wrinkling was evaluated by two independent persons according to five categories (0: no wrinkle; 1: slight wrinkle, 2: clear wrinkle, 3: strong wrinkle; 4: severe wrinkle).

back skin of mice = test: Primary irritation score on clipped back skin of mice; format: in vivo, mice (FVB strain); conditions: for irritation category (0-4): 5 μl topical daily
Protocol: A third primary irritation experiment was performed. Back skin of mice (FVB strain, female, 7 weeks of age, n=3-4/group) was clipped of hair with an electric clipper and 5 μl of each solution was topically applied. The following day, irritation was evaluated according to five categories (0: no irritation, 1; slight irritation, 2:clear irritation, 3:strong irritation, 4:severe irritation) and 5 μl of each solution was topically applied. This procedure was continued for a total of five consecutive days.

mice ears = test: Mouse ear thickness after a single UVB irradiation and topical application for five days
Protocol: Prior to the experiment, the thickness of mice ears (FVB strain, female, 7 weeks of age, n=3-4/group) was measured with a thickness gauge (Mitsutoyo Corp.). […] The following day, ear thickness of both ears was measured. This procedure was continued for five consecutive days.
In a second experiment, solution was applied to each ear after exposure to UVB irradiation. The following day, the thickness of both ears was measured. UVB irradiation was only applied once and solutions were administered a total of five times (once a day/consecutive five days).

## Cn1c(=O)c2c(ncn2C)n(C)c1=O [caffeine]
Hairless Skh-1 mice; 1.2% in acetone, topical, 10 weeks
  UVB-induced wrinkle formation: effective at reducing UVB-induced wrinkle formation
Hairless Skh-1 mice; group 2: No UVB + 1.2% caffeine in acetone, 100 μl on back three times weekly, after 10 weeks, scale 0 no wrinkle to 4 severe wrinkle
  skin wrinkling score, average: 0
Back skin of mice; 0.5% caffeine in DMSO, day 0
  irritation category (0-4): 0
Back skin of mice; 0.5% caffeine in DMSO, day 1
  irritation category (0-4): 0
Back skin of mice; 0.5% caffeine in DMSO, day 2
  irritation category (0-4): 0
Back skin of mice; 0.5% caffeine in DMSO, day 3
  irritation category (0-4): 0
Back skin of mice; 0.5% caffeine in DMSO, day 4
  irritation category (0-4): 0
Back skin of mice; 0.5% caffeine in DMSO, day 5
  irritation category (0-4): 0
Back skin of mice; 0.5% caffeine in acetone, day 0
  irritation category (0-4): 0
Back skin of mice; 0.5% caffeine in acetone, day 1
  irritation category (0-4): 0
Back skin of mice; 0.5% caffeine in acetone, day 2
  irritation category (0-4): 0
Back skin of mice; 0.5% caffeine in acetone, day 3
  irritation category (0-4): 0
Back skin of mice; 0.5% caffeine in acetone, day 4
  irritation category (0-4): 0
Back skin of mice; 0.5% caffeine in acetone, day 5
  irritation category (0-4): 0
Back skin of mice; 1.2% caffeine in acetone, day 0
  irritation category (0-4): 0
Back skin of mice; 1.2% caffeine in acetone, day 1
  irritation category (0-4): 0
Back skin of mice; 1.2% caffeine in acetone, day 2
  irritation category (0-4): 0
Back skin of mice; 1.2% caffeine in acetone, day 3
  irritation category (0-4): 0
Back skin of mice; 1.2% caffeine in acetone, day 4
  irritation category (0-4): 0
Back skin of mice; 1.2% caffeine in acetone, day 5
  irritation category (0-4): 0
Back skin of mice; 2% caffeine in DMSO, day 0
  irritation category (0-4): 0
Back skin of mice; 2% caffeine in DMSO, day 1
  irritation category (0-4): 0
Back skin of mice; 2% caffeine in DMSO, day 2
  irritation category (0-4): 0
Back skin of mice; 2% caffeine in DMSO, day 3
  irritation category (0-4): 0
Back skin of mice; 2% caffeine in DMSO, day 4
  irritation category (0-4): 0
Back skin of mice; 2% caffeine in DMSO, day 5
  irritation category (0-4): 0
Back skin of mice; back skin, five consecutive days
  irritation in mouse skin: did not cause irritation
Back skin of mice; concentration of 2% in DMSO and 1.2% in acetone
  primary irritancy (back skin): did not have primary irritancy
Mice ears; 2% in DMSO or 1.2% in acetone, with or without UVB
  ear thickness compared to solvents (DMSO or acetone): did not increase ear thickness
Mice ears; concentration of 2% in DMSO or 1.2% in acetone
  primary irritancy (ear): did not have primary irritancy
